We go through 13 compounds from US12371454B2, “Cyclic peptide compound having Kras inhibitory action” (priority 2019, dated 2025).

The target of this experiment is T1, Kras and SOS1 (biotin-tagged human Kras loaded with GDP, His-tagged human SOS1) (Homo sapiens, UniProt P01116, G12D).
T1 construct: made in house; host or cells: E. coli (stated for Kras only)
Description: Protein-protein interaction inhibition between Kras and SOS1 (KrasGl2D-SOS PPI) using AlphaScreen. The format is binding. The following applies: AlphaScreen; biotin-tagged human Kras loaded with GDP, His-tagged human SOS1; read-out: KRAS G12D-SOS PPI IC50. Summed up: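 Binding between SOS1 and Kras is detected as bead-proximity luminescence: illuminate Ni-conjugated donors (680 nm), collect 520-620 nm emission from streptavidin-conjugated acceptors; Kras carries biotin and GDP loaded after purification, SOS1 carries a His tag.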
(Bead proximity is the source of the signal in Alpha formats.)

Starred links: 1 amine or outer side, 2 acyl side, 3 side chain; linkers in the order of their positions; H or OH if unused. Positions of bridges follow the written chain, without caps; N, C: chain ends. Non-standard residues stand in square brackets, D forms with d. Residues, ends and D or L forms follow the SMILES beside them. *: point of attachment. hPhe(3,5-F2-4-CF3) = N[C@@H](CCc1cc(F)c(C(F)(F)F)c(F)c1)C(=O)O; hPhe(3-Cl-4-CF3) = N[C@@H](CCc1ccc(C(F)(F)F)c(Cl)c1)C(=O)O; NMePhe(4-CF3) = CN[C@@H](Cc1ccc(C(F)(F)F)cc1)C(=O)O; Thiomorpholino(1,1-dioxo) = O=S1(=O)CCN(*)CC1; X50 = O=C([C@H](Cc1cc(F)cc(Br)c1)N[*:1])[*:2]; NEtPhe(4-Me) = CCN[C@@H](Cc1ccc(C)cc1)C(=O)O; NMeAbu(4,4,4-F3) = CN[C@@H](CC(F)(F)F)C(=O)O; NMePhe(4-Cl) = CN[C@@H](Cc1ccc(Cl)cc1)C(=O)O; NMePhe(4-Me) = CN[C@@H](Cc1ccc(C)cc1)C(=O)O; X59 = O=C([C@H](Cc1cc(I)ccc1Cl)N[*:1])[*:2]; X42 = Cc1ccc(I)cc1C[C@H](N[*:1])C(=O)[*:2]; NMedβ3hAla = C[C@H](CC(=O)[*:2])N(C)[*:1]; NMeGly(cPent) = CN[C@H](C(=O)O)C1CCCC1; Phe(3-I) = N[C@@H](Cc1cccc(I)c1)C(=O)O; Pro(4,4-F2) = O=C(O)[C@@H]1CC(F)(F)CN1; NMeGly(cBu) = CN[C@H](C(=O)O)C1CCC1; NMeY = CN[C@@H](Cc1ccc(O)cc1)C(=O)O; NMeCha = CN[C@@H](CC1CCCCC1)C(=O)O; NMeChg = CN[C@H](C(=O)O)C1CCCCC1; NMeD = CN[C@@H](CC(=O)O)C(=O)O; NMeL = CN[C@@H](CC(C)C)C(=O)O; Chg = N[C@H](C(=O)O)C1CCCCC1; NMeV = CN[C@H](C(=O)O)C(C)C; NMeAbu = CC[C@H](NC)C(=O)O; Morpholide = C1CN(*)CCO1; NMeA = CN[C@@H](C)C(=O)O; NMeAib = CNC(C)(C)C(=O)O; Nle = CCCC[C@H](N)C(=O)O; Piperidide = C1CCN(*)CC1; Pra = C#CC[C@H](N)C(=O)O; Pyrrolidide = C1CCN(*)C1; dNMeA = CN[C@H](C)C(=O)O; Ac5c = NC1(C(=O)O)CCCC1; Aze = O=C(O)[C@@H]1CCN1; Sar = CNCC(=O)O

T1 sequence (P01116 1-188 isoform P01116-2 G12D): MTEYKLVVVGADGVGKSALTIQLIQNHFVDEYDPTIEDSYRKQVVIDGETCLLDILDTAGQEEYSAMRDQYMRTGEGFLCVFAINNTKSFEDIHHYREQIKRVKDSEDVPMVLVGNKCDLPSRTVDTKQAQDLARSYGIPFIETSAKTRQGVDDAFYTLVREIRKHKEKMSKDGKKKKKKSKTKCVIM

As for `CC[C@H](C)[C@@H]1NC(=O)[C@H](CC(C)C)N(C)C(=O)C[C@@H](C(=O)N(C)C)N(C)C(=O)[C@H](C2CCCC2)N(C)C(=O)C2(CCCC2)NC(=O)[C@@H]2CC(F)(F)CN2C(=O)[C@H](CCc2cc(F)c(C(F)(F)F)c(F)c2)NC(=O)CN(C)C(=O)[C@H](CC2CCCCC2)N(C)C(=O)[C@@H]2CCN2C(=O)[C@H](C)N(C)C1=O` [Compound 1346] ([NMeL]I[NMeA][Aze][NMeCha][Sar][hPhe(3,5-F2-4-CF3)][Pro(4,4-F2)][Ac5c][NMeGly(cPent)][NMeD]-NMe2; lactam N-11), the IC50 (in general, the concentration needed to halve the response being measured) stood at 0.6 nM.
The value for `CC[C@H](C)[C@@H]1NC(=O)[C@H](CC(C)C)N(C)C(=O)C[C@@H](C(=O)N2CCS(=O)(=O)CC2)NC(=O)[C@H](C(C)C)N(C)C(=O)C2(CCCC2)NC(=O)[C@@H]2CCCN2C(=O)[C@H](CCc2ccc(C(F)(F)F)c(Cl)c2)NC(=O)CN(C)C(=O)[C@H](CC2CCCCC2)N(C)C(=O)[C@@H]2CCN2C(=O)[C@H](C)N(C)C1=O` [Compound 1349] ([NMeL]I[NMeA][Aze][NMeCha][Sar][hPhe(3-Cl-4-CF3)]P[Ac5c][NMeV]D-{Thiomorpholino(1,1-dioxo)}; lactam N-11) was 150 nM; that for `C#CC[C@@H]1NC(=O)[C@H](Cc2cccc(I)c2)NC(=O)CN(C)C(=O)[C@H](Cc2ccc(OC)cc2)N(C)C(=O)[C@@H]2CCN2C(=O)[C@H](C)N(C)C(=O)[C@H]([C@@H](C)CC)NC(=O)[C@H](CC(C)C)N(C)C(=O)C[C@@H](C(=O)N2CCCCC2)N(C)C(=O)[C@H](CC(C)C)NC(=O)C(C)(C)N(C)C1=O` [Compound 1350] ([NMeL]I[NMeA][Aze][NMeY](Me)[Sar][Phe(3-I)][Pra][NMeAib]L[NMeD]-Piperidide; lactam N-11) was 17 nM; that for `CCCC[C@@H]1NC(=O)[C@H](Cc2cc(I)ccc2Cl)NC(=O)CN(C)C(=O)[C@H](Cc2ccc(Cl)cc2)N(C)C(=O)CN(C)C(=O)CN(C)C(=O)[C@H]([C@@H](C)CC)NC(=O)[C@H](CC(C)C)N(C)C(=O)C[C@@H](C(=O)N2CCCCC2)N(C)C(=O)[C@H](CC(C)C)NC(=O)C(C)(C)N(C)C1=O` [Compound 1352] ([NMeL]I[Sar][Sar][NMePhe(4-Cl)][Sar][X59][Nle][NMeAib]L[NMeD]-Piperidide; lactam N-11) was 110 nM.
The value for `CC[C@H](C)[C@@H]1NC(=O)[C@H](CC(C)C)N(C)C(=O)C[C@@H](C(=O)N2CCCCC2)N(C)C(=O)[C@H](C2CCCCC2)NC(=O)C2(CCCC2)NC(=O)[C@@H]2CCCN2C(=O)[C@H](CCc2ccc(C(F)(F)F)c(Cl)c2)NC(=O)CN(C)C(=O)[C@H](CC2CCCCC2)N(C)C(=O)CN(C)C(=O)CN(C)C1=O` [Compound 1354] ([NMeL]I[Sar][Sar][NMeCha][Sar][hPhe(3-Cl-4-CF3)]P[Ac5c][Chg][NMeD]-Piperidide; lactam N-11) was 7.7 nM; that for `CC[C@H](C)[C@@H]1NC(=O)[C@H](CC(F)(F)F)N(C)C(=O)C[C@@H](C(=O)N2CCCC2)N(C)C(=O)[C@H](C2CCCCC2)N(C)C(=O)C2(CCCC2)NC(=O)[C@@H]2CC(F)(F)CN2C(=O)[C@H](CCc2ccc(C(F)(F)F)c(Cl)c2)NC(=O)CN(C)C(=O)[C@H](CC2CCCCC2)N(C)C(=O)CN(C)C(=O)CN(C)C1=O` [Compound 1357] ([NMeAbu(4,4,4-F3)]I[Sar][Sar][NMeCha][Sar][hPhe(3-Cl-4-CF3)][Pro(4,4-F2)][Ac5c][NMeChg][NMeD]-Pyrrolidide; lactam N-11) was 0.52 nM; that for `CCCC[C@@H]1NC(=O)[C@H](Cc2cc(I)ccc2C)NC(=O)CN(C)C(=O)[C@H](Cc2ccc(OC)cc2)N(C)C(=O)[C@@H]2CCN2C(=O)[C@H](C)N(C)C(=O)[C@H]([C@@H](C)CC)NC(=O)[C@H](CC)N(C)C(=O)C[C@@H](C(=O)N2CCCCC2)N(C)C(=O)[C@H](CC(C)C)NC(=O)C(C)(C)N(C)C1=O` [Compound 1358] ([NMeAbu]I[NMeA][Aze][NMeY](Me)[Sar][X42][Nle][NMeAib]L[NMeD]-Piperidide; lactam N-11) was 19 nM.
With `C#CC[C@@H]1NC(=O)[C@H](Cc2cccc(I)c2)NC(=O)CN(C)C(=O)[C@H](Cc2ccc(C(F)(F)F)cc2)N(C)C(=O)CN(C)C(=O)CN(C)C(=O)[C@H]([C@@H](C)CC)NC(=O)[C@H](CC(C)C)N(C)C(=O)C[C@@H](C(=O)N2CCCCC2)N(C)C(=O)[C@H](CC(C)C)NC(=O)C(C)(C)N(C)C1=O` [Compound 1361] ([NMeL]I[Sar][Sar][NMePhe(4-CF3)][Sar][Phe(3-I)][Pra][NMeAib]L[NMeD]-Piperidide; lactam N-11) the figure was 24 nM.
Take `CC[C@H](C)[C@@H]1NC(=O)[C@H](C2CCC2)N(C)C(=O)C[C@@H](C(=O)N2CCCC2)N(C)C(=O)[C@H](C2CCCCC2)N(C)C(=O)C2(CCCC2)NC(=O)[C@@H]2CC(F)(F)CN2C(=O)[C@H](CCc2ccc(C(F)(F)F)c(Cl)c2)NC(=O)CN(C)C(=O)[C@H](CC2CCCCC2)N(C)C(=O)CN(C)C(=O)CN(C)C1=O` [Compound 1363] ([NMeGly(cBu)]I[Sar][Sar][NMeCha][Sar][hPhe(3-Cl-4-CF3)][Pro(4,4-F2)][Ac5c][NMeChg][NMeD]-Pyrrolidide; lactam N-11): the IC50 was 0.57 nM.
With `CC[C@H](C)[C@@H]1NC(=O)[C@H](CC(C)C)N(C)C(=O)C[C@@H](C(=O)N2CCOCC2)N(C)C(=O)[C@H](C2CCCC2)N(C)C(=O)C2(CCCC2)NC(=O)[C@@H]2CCCN2C(=O)[C@H](CCc2cc(F)c(C(F)(F)F)c(F)c2)NC(=O)CN(C)C(=O)[C@H](Cc2ccc(C)cc2)N(CC)C(=O)[C@@H]2CCN2C(=O)[C@H](C)N(C)C1=O` [Compound 1368] ([NMeL]I[NMeA][Aze][NEtPhe(4-Me)][Sar][hPhe(3,5-F2-4-CF3)]P[Ac5c][NMeGly(cPent)][NMeD]-Morpholide; lactam N-11), the IC50 worked out at 0.67 nM.
As to `CCCC[C@@H]1NC(=O)[C@H](Cc2cc(F)cc(Br)c2)NC(=O)CN(C)C(=O)[C@H](Cc2ccc(OC)cc2)N(C)C(=O)[C@@H]2CCN2C(=O)[C@H](C)N(C)C(=O)[C@H]([C@@H](C)CC)NC(=O)[C@H](CC)N(C)C(=O)C[C@@H](C(=O)N2CCCCC2)N(C)C(=O)[C@H](CC(C)C)NC(=O)C(C)(C)N(C)C1=O` [Compound 1372] ([NMeAbu]I[NMeA][Aze][NMeY](Me)[Sar][X50][Nle][NMeAib]L[NMeD]-Piperidide; lactam N-11), the IC50 amounted to 17 nM.
With `CC[C@H](C)[C@@H]1NC(=O)[C@H](C)N(C)C(=O)C[C@@H](C)N(C)C(=O)[C@H](CC(C)C)NC(=O)C(C)(C)N(C)C(=O)[C@H](CC(C)C)NC(=O)[C@H](CCc2ccc(C(F)(F)F)c(Cl)c2)NC(=O)CN(C)C(=O)[C@H](Cc2ccc(C)cc2)N(C)C(=O)[C@@H]2CCN2C(=O)CN(C)C1=O` [Compound 1377] (cyclo([Aze][NMePhe(4-Me)][Sar][hPhe(3-Cl-4-CF3)]L[NMeAib]L[NMedβ3hAla][NMeA]I[Sar])) the figure was 5.8 nM; with `CC[C@H](C)[C@@H]1NC(=O)[C@H](C)N(C)C(=O)C[C@@H](C)N(C)C(=O)[C@H](CC(C)C)NC(=O)C(C)(C)N(C)C(=O)[C@H](CC(C)C)NC(=O)[C@H](CCc2ccc(C(F)(F)F)c(Cl)c2)NC(=O)[C@@H](C)N(C)C(=O)[C@H](CC2CCCCC2)N(C)C(=O)[C@@H]2CCN2C(=O)CN(C)C1=O` [Compound 1378] (cyclo([Aze][NMeCha][dNMeA][hPhe(3-Cl-4-CF3)]L[NMeAib]L[NMedβ3hAla][NMeA]I[Sar])), 380 nM.
